A word on the IC50: it is the point on the concentration scale where inhibition reaches its midpoint.

Where only a bound is given, the exact number is not on record here.

These results are taken from patent US20100120798A1, “SUBSTITUTED PIPERIDINES CONTAINING A HETEROARYLAMIDE OR HETEROARYLPHENYL MOIETY” (ASTEX THERAPEUTICS LIMITED, priority 2006, published 2010).

This assay is described as follows: In vitro MDA-MB-468 human breast adenocarcinoma GSK-3 phosphorylation assay. Format: cell-based. As to conditions: mean IC50, MDA-MB-468 cells, 2 hours with compound, phospho-GSK-3β. The text has this: This assay determines the ability of test compounds to inhibit phosphorylation of Serine-9 residue in Glycogen Synthase Kinase-3beta (GSK-3β) as a surrogate marker of cellular PKB (Akt) activity, as assessed using Acumen Explorer Fluorescent Plate-Reader technology. A MDA-MB-468 human breast adenocarcinoma cell line (LGC Promochem, Teddington, Middlesex, UK, Catalogue No. HTB-132) was routinely maintained in Dulbecco's modified Eagle's growth medium (DMEM; Invitrogen Limited, Paisley, UK Catalogue No. 11966-025) containing 10% heat-inactivated foetal calf serum (FCS; Sigma, Poole, Dorset, UK, Catalogue No. F0392) and 1% L-glutamine (Gibco, Catalogue No. 25030-024) at 37° C. with 5% CO2 up to a confluency of 70-90%.
For the phosphorylation assay, the cells were detached from the culture flask using Trypsin-EDTA (Invitrogen Limited, Catalogue No. 25300-062) and seeded into the wells of a black transparent-bottom Corning Costar Polystyrene 96 well plate (Fisher Scientific UK, Loughborough, Leicestershire, UK; Catalogue No. 3904 and DPS-130-020K) at a density of 5000 cells per well in 100 μl of complete growth media. The cells were incubated overnight at 37° C. with 5% CO2 to allow them to adhere.
On day 2, the cells were treated with test compounds and incubated for 2 hours at 37° C. with 5% CO2. Test compounds were prepared as 10 mM stock solutions in DMSO and dosed directly to required concentration into test wells using non-contact (acoustic dispensing of multiple 2.5 nl droplets directly into assay wells) ECHO dosing technology (Labcyte Inc. Sunnyvale, Calif., USA). Each plate contained control wells without test compound.
20 μl of fixing buffer (Phosphate Buffered Saline (PBS) containing 10% formaldehyde; Sigma; Catalogue No. F1635) was then added to each well to give a final well concentration 1.6%. Plates were then incubated for 30 minutes at room temperature prior to the fixative being removed. Each well was washed once with 250 μl of PBS and then 50 μl PBS added to each well. PBS was then aspirated and cells permeabilised and blocked by incubating each well with 50 μl of permeabilisation/blocking buffer (PBS containing 0.5% Tween 20 (Sigma; Catalogue No. P5927) and 5% Marvel Milk Powder (Andrews Pharmacy Ltd, Macclesfield, Cheshire, UK; Catalogue No. APC100199)) for 1 hour at room temperature prior to staining.
Following removal of Perm/Block buffer, 50 μl of primary anti-phospho-GSK-3β antibody (Cell Signalling Technology (New England Biolabs (Uk) Ltd.), Hitchin, Hertfordshire, UK; Catalogue No. 9336 diluted 1:400 in Blocking buffer (PBS containing 5% Marvel and 0.05% Tween/Polysorbate 20) was added to each well and incubated overnight at 4° C.
Each well was washed three times in 250 μl of wash buffer (PBS containing 0.05% polysorbate 20), and cells incubated for 1 hour at room temperature with 50 μl of secondary fluorescently-labelled anti-rabbit Alexa Fluor 488 antibody (Molecular Probes, Invitrogen Limited, Catalogue No. A11008) diluted 1:750 in blocking buffer. Plates were washed three times in 250 μl of wash buffer and stored containing 50 μl of PBS at 4° C. until required.
Plates were analysed using an Acumen Explorer Plate-reader to quantify level of fluorescent signal that represents quantity of phosphorylated-GSK-3β.
IC50 calculation—IC50 is the concentration of compound required to give 50% effect over the range of activity affected by the compound, between maximum (no compound) and minimum (excess level of compound) response control data. IC50 values were determined by fitting background corrected, dose response assay data to a 4 parameter logistic curve fit equation model with the minimum response set to zero. This was done using an in-house developed algorithm within the Origin graphing software package (OriginLab Corporation, Northampton, Mass., USA). […]

Turning to `NCC1(C(=O)NCc2ccc(Cl)s2)CCN(c2ncnc3[nH]ccc23)CC1` [Example 22, 4-(Aminomethyl)-N-((5-chlorothiophen-2-yl)methyl)-1-(7H-pyrrolo[2,3-]pyrimidin-4-yl)piperidine-4-carboxamide], the IC50 is 16 nM. The result for `NCC1(C(=O)NCc2ccc(Br)s2)CCN(c2ncnc3[nH]ccc23)CC1` [Example 21, 4-(aminomethyl)-N-((5-bromothiophen-2-yl)methyl)-1-(7H-pyrrolo[2,3-d]pyrimidin-4-yl)piperidine-4-carboxamide] reads less than 5.9 nM; that for `Cc1cnc(NC(=O)C2(CN)CCN(c3ncnc4[nH]ccc34)CC2)s1` [Example 59, 4-(aminomethyl)-N-(5-methylthiazol-2-yl)-1-(7H-pyrrolo[2,3-d]pyrimidin-4-yl)piperidine-4-carboxamide], 200 nM. Then `NCC1(c2cccc(-c3ccco3)c2)CCN(c2ncnc3[nH]ccc23)CC1` [Example 78, [4-[3-(furan-2-yl)phenyl]-1-(7H-pyrrolo[3,2-e]pyrimindin-4-yl)piperidin-4-yl]methanamine], with 50 nM; and `Cn1cc(-c2cccc(C3(CN)CCN(c4ncnc5[nH]cc(Cl)c45)CC3)c2)cn1` [Example 29, (1-(5-Chloro-7H-pyrrolo[2,3-d]pyrimidin-4-yl)-4-(3-(1-methyl-1H-pyrazol-4-yl)phenyl)piperidin-4-yl)methanamine], with 11 nM. Consider `NCC1(C(=O)Nc2ccc(Cl)cn2)CCN(c2ncnc3[nH]ccc23)CC1` [Example 81, 4-(Aminomethyl)-N-(5-chloropyridin-2-yl)-1-(7H-pyrrolo[2,3-d]pyrimidin-4-yl)piperidine-4-carboxamide], for which the IC50 is 73 nM. The result for `Cn1cc(-c2cccc(C3(CN)CCN(c4ncnc5[nH]nc(Br)c45)CC3)c2)cn1` [Example 31, (1-(3-Bromo-1H-pyrazolo[3,4-d]pyrimidin-4-yl)-4-(3-(1-methyl-1H-pyrazol-4-yl)phenyl)piperidin-4-yl)methanamine] reads 22 nM; that for `CNCC1(c2cccc(-c3cnn(C)c3)c2)CCN(c2ncnc3[nH]cnc23)CC1` [Example 9, Methyl-[4-[3-(1-methyl-1H-pyrazol-4-yl)-phenyl]-1-(9H-purin-6-yl)-piperidin-4-ylmethyl]-amine], 400 nM; that for `NCC1(c2cccc(-c3cn[nH]c3)c2)CCN(c2ncnc3[nH]ccc23)CC1` [Example 73, [4-[3-(1H-Pyrazol-4-yl)phenyl]-1-(7H-pyrrolo[3,2-e]pyrimidin-4-yl)piperidin-4-yl]methanamine], 150 nM. Take `Cn1cc(-c2cccc(C3(CCCN)CCN(c4ncnc5[nH]cnc45)CC3)c2)cn1` [Example 34, 3-(4-(3-(1-methyl-1H-pyrazol-4-yl)phenyl)-1-(9H-purin-6-yl)piperidin-4-yl)propan-1-amine]: the IC50 is more than 2000 nM. Turning to `NCC1(c2cccc(-c3ccoc3)c2)CCN(c2ncnc3[nH]ccc23)CC1` [Example 79, [4-(3-furan-3-ylphenyl)-1-(7H-pyrrolo[3,2-e]pyrimidin-4-yl)piperidin-4-yl]methanamine], the IC50 was found to be 48 nM. For the compound `Cn1cc(-c2cccc(C3(CN4CCCC4)CCN(c4ncnc5[nH]cnc45)CC3)c2)cn1` [Example 33, 6-(4-(3-(1-methyl-1H-pyrazol-4-yl)phenyl)-4-(pyrrolidin-1-ylmethyl)piperidin-1-yl)-9H-purine], the IC50 is 740 nM. Then `Cc1ccsc1CNC(=O)C1(N)CCN(c2ncnc3[nH]ccc23)CC1` [Example 47, 4-Amino-1-(7H-pyrrolo[2,3-d]pyrimidin-4-yl)-piperidine-4-carboxylic acid (3-methyl-thiophen-2-ylmethyl)-amide], with 3900 nM. Consider `NC1(C(=O)NCc2cc3ccccc3[nH]2)CCN(c2ncnc3[nH]ccc23)CC1` [Example 50, 4-Amino-1-(7H-pyrrolo[2,3-d]pyrimidin-4-yl)-piperidine-4-carboxylic acid (1H-indol-2-ylmethyl)-amide], for which the IC50 is 700 nM.

For the compound `CN(C)CC(=O)NCC1(c2cccc(-c3cnn(C)c3)c2)CCN(c2ncnc3[nH]cnc23)CC1` [Example 36, 2-(dimethylamino)-N-((4-(3-(1-methyl-1H-pyrazol-4-yl)phenyl)-1-(9H-purin-6-yl)piperidin-4-yl)methyl)acetamide], the IC50 was 2800 nM. Then `NC1(C(=O)NCc2ccncc2)CCN(c2ncnc3[nH]ccc23)CC1` [Example 43, 4-Amino-N-(pyridin-4-ylmethyl)-1-(7H-pyrrolo[2,3-d]pyrimidin-4-yl)piperidine-4-carboxamide], with more than 19000 nM; and `Cc1c[nH]c2ncnc(N3CCC(CN)(c4cccc(-c5cnn(C)c5)c4)CC3)c12` [Example 30, (4-(3-(1-methyl-1H-pyrazol-4-yl)phenyl)-1-(5-methyl-7H-pyrrolo[2,3-d]pyrimidin-4-yl)piperidin-4-yl)methanamine], with 27 nM. Then `NCC1(c2cc(F)cc(-c3cncc(F)c3)c2)CCN(c2ncnc3[nH]ccc23)CC1` [Example 71, (4-(3-Fluoro-5-(5-fluoropyridin-3-yl)phenyl)-1-(7H-pyrrolo[2,3-d]pyrimidin-4-yl)piperidin-4-yl)methanamine], with 17 nM; and `Cc1sccc1-c1cccc(C2(CN)CCN(c3ncnc4[nH]cnc34)CC2)c1` [Example 7, C-[4-[3-(2-Methyl-thiophen-3-yl)-phenyl]-1-(9H-purin-6-yl)-piperidin-4-yl]-methylamine], with less than 8 nM. `NC1(C(=O)NCc2cnc(-c3ccccc3)s2)CCN(c2ncnc3[nH]ccc23)CC1` [Example 46, 4-Amino-1-(7H-pyrrolo[2,3-d]pyrimidin-4-yl)-piperidine-4-carboxylic acid (2-phenyl-thiazol-5-ylmethyl)-amide]: the half-maximal inhibitory concentration (IC50) worked out at 14000 nM. In the case of `Cc1ccc(CNC(=O)C2(CN)CCN(c3ncnc4[nH]ccc34)CC2)s1` [Example 23, 4-(Aminomethyl)-N-((5-methylthiophen-2-yl)methyl)-1-(7H-pyrrolo[2,3-d]pyrimidin-4-yl)piperidine-4-carboxamide], the IC50 stood at 43 nM. Take `Cn1cc(-c2cccc(C3(CN)CCN(c4ncnc5[nH]cc(Br)c45)CC3)c2)cn1` [Example 28, (1-(5-bromo-7H-pyrrolo[2,3-d]pyrimidin-4-yl)-4-(3-(1-methyl-1H-pyrazol-4-yl)phenyl)piperidin-4-yl)methanamine]: the IC50 was found to be 7.2 nM. Regarding `NCC1(c2cccc(-c3cnoc3)c2)CCN(c2ncnc3[nH]ccc23)CC1` [Example 80, [4-[3-(1,2-oxazol-4-yl)phenyl]-1-(7H-pyrrolo[3,2-e]pyrimidin-4-yl)piperidin-4-yl]methanamine], the IC50 was determined as 100 nM. Then `NCC1(c2cccc(-c3ccncc3)c2)CCN(c2ncnc3[nH]ccc23)CC1` [Example 75, [4-(3-pyridin-4-ylphenyl)-1-(7H-pyrrolo[3,2-e]pyrimidin-4-yl)piperidin-4-yl]methanamine], with 65 nM. Take `NCC1(C(=O)Nc2nc3ccccc3s2)CCN(c2ncnc3[nH]ccc23)CC1` [Example 63, 4-(Aminomethyl)-N-(benzo[d]thiazol-2-yl)-1-(7H-pyrrolo[2,3-d]pyrimidin-4-yl)piperidine-4-carboxamide]: the half-maximal inhibitory concentration (IC50) was determined as 170 nM.

For `NCC1(c2cccc(-c3cncc(F)c3)c2)CCN(c2ncnc3[nH]cnc23)CC1` [Example 8, C-[4-[3-(5-Fluoro-pyridin-3-yl)-phenyl]-1-(9H-purin-6-yl)-piperidin-4-yl]-methylamine], the IC50 is less than 13 nM. Take `Cn1cc(-c2cccc(C3(CO)CCN(c4ncnc5[nH]cnc45)CC3)c2)cn1` [Example 10, [4-[3-(1-Methyl-1H-pyrazol-4-yl)-phenyl]-1-(9H-purin-6-yl)-piperidin-4-yl]-methanol]: the IC50 stood at 5100 nM.
